Laboratory results published in patent US7173062B2, “Method for the improvement of skin wrinkles using retinyl retinoate” (Enprani Co., Ltd., priority 2001, dated 2007).
Entries after “also recorded” stand apart in the source; their conditions may differ.

Key:
[1] = tested on: AP-1 (comprising c-Jun protein); experiment: Inhibition of activity of AP-1 protein (Coll-CAT collagenase promoter reporter in HaCaT cells); type: cell-based; conditions: for inhibition of the expression of collagenase: cells treated together with RAR α (c-Jun expressed)
Protocol: AP-1 (comprising c-Jun protein) is a transcription factor inducing the expression of collagenase that is a major cause of skin wrinkles. […] Therefore, studies thereabout were carried out in a similar manner to Experiment 6 as follows.
Experimental procedure: CAT reporter (Coll-CAT) having the collagenase promoter wherein AP-1 response element (TRE) is contained, was transfected into HaCaT cell line, a skin cancer cell line, using a liposome. Then, the degree of inhibition against the activity of AP-1 by retinol derivatives was measured through CAT ELISA in a similar manner to Experiment 6. Further, the effect of retinol derivatives on the transcriptional activity of c-Jun (a protein that induces transfer of cancer, skin aging and inflammation, and consists of homologous isomers or heterologous isomers), a constitutional element of AP-1, was examined by cotransfecting c-Jun or RAR α expression vector.

[2] = target: T1, RAR γ (Homo sapiens, UniProt P13631); experiment: Activity for RAR γ (CAT reporter in HaCaT cells); type: cell-based; conditions: 1 μM, CAT ELISA
T1 construct: expressed in transfected cells; host or cells: HaCaT
T1 sequence (P13631 1-454): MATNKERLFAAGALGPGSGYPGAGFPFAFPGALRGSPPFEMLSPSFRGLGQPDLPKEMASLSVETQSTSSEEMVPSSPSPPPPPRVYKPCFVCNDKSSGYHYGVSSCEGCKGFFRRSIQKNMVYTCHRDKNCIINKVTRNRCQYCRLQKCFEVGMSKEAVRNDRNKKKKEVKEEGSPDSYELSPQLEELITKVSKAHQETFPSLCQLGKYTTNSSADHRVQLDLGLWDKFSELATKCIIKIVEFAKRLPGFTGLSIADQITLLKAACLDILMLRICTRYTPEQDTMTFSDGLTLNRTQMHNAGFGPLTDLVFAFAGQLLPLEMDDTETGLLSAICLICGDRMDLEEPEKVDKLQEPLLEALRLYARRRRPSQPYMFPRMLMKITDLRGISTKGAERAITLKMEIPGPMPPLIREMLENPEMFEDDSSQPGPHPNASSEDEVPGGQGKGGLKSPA
Protocol: (§1) The effect of the retinol derivatives on the activity of RAR and RXR was examined as follows.
(§2) Experimental procedure: Recombinant gene of DR5-tk-CAT or DR1-tk-CAT comprising DR1 or DR5 as a response element of RAR/RXR, […] promoter, and CAT (chloramphenicol acetyl transferase) was suitably combined with a plasmid DNA that expresses RAR α, β, γ and cotransfected to HaCaT cell line, a skin cancer cell line, with Lipofectamin (GibcoBRL). Then, the cells were incubated in DMEM/10% FBS medium for 1 day, retinol derivative was added in a concentration of 1 μM, and the cells were incubated again for 1 day under the condition of 5% CO2 and 37° C. The cells were washed with phosphate-buffered salione (PBS). Proteins were extracted from each cell, the activity of β-galactosidase was assayed, and the amount of protein was measured to determine the transfection efficiency. Further, the degree of transcription for RAR or RXR was analyzed by CAT ELISA (Roche Molecular Biochemicals, Mannheim, Germany).

[3] = target: T2, RAR β (Homo sapiens, UniProt P10826); experiment: Activity for RAR β (CAT reporter in HaCaT cells); type: cell-based; conditions: 1 μM, CAT ELISA
T2 construct: expressed in transfected cells; host or cells: HaCaT
T2 sequence (P10826 1-455): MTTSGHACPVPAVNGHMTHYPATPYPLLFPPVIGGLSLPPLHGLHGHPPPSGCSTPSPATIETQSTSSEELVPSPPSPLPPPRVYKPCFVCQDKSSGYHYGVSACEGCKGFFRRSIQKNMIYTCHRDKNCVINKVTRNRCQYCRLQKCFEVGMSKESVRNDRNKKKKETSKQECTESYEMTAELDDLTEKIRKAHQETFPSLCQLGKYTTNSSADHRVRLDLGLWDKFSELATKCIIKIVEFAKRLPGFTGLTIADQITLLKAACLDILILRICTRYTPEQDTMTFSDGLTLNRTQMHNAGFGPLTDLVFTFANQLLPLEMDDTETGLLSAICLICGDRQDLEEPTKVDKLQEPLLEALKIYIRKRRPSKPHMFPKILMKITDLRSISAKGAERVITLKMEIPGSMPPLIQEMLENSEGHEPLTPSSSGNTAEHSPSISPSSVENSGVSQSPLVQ
Protocol: as §1, §2

[4] = Thermal stability test (quantitative HPLC); type: physicochemical; conditions: humidity 58%, in % (unit assumed)
Protocol: In order to compare thermal stability of the compound of formula (1) with retinol, phase stability for 1 month in a thermohygrostat (humidity: 58%) of room temperature, 40° C., and 4° C. was examined by a quantitative HPLC analysis under the following condition.
1) Column: Capcellpak UG 120 (5 μm, 4.6 mm*150 mm, shiseido, Japan)
3) Detector: UV(PDA 326 nm), • Fluorescence: Ex: 326nrm, Em: 460 nm

[5] = tested on: normal human fibroblast (Newborn); experiment: Cell toxicity test (MTT method); type: cell-based; conditions: comparison in words
Protocol: Cell toxicity of the compound of formula (1) is examined at concentrations ranging from 10^−6 to 10^−3%(W/V) using normal human fibroblast (Newborn), and the skin irritating property is examined by a patch test for the skin of normal adults. Further, the effect of increasing the collagen synthesis in a human fibroblast cell is measured to identify the cell regeneration effect of the compound of formula (1), photostability is identified by measuring ^1H NMR of the compound of formula (1) after the compound is irradiated by UV light (356 nm) at certain intervals of time, and thermal stability is identified by quantifying the amount at 40° C. (Experiments 1 to 5).
In order to verify the primary stability as a material for medicines and cosmetics, cell toxicity of the retinal retaliate of formula (1) was determined according to MTT method (see: Mossman T., Rapid calorimetric assay for cellular growth & amp;survival:application to proliferation & amp;cytotoxity assays. Journal of Immunological Methods 65, 55–63, 1983) using normal human fibroblast (Newborn) and the results are shown in FIG. 1.

[6] = Condition of expression: c-Jun + RAR α, HaCaT, Coll-CAT, untreated = 8.6
[7] = Condition of expression: c-Jun, HaCaT, Coll-CAT, untreated = 8.6
[8] = Condition of expression: — (no c-Jun or RAR α vector), HaCaT, Coll-CAT, untreated = 1.0
[9] = Control = 1.0, listed as compound of formula (1)

SMILES | Relative inhibition against the expression of collagenase [1, 6] | Relative inhibition against the expression of collagenase [1, 7] | Relative inhibition against the expression of collagenase [1, 8] | inhibition of the expression of collagenase [1] | Relative activity against RAR γ ([2]; Control = 1.0) | Relative activity against RAR β ([3]; Control = 1.0) | Thermal stability (amount by quantitative HPLC) ([4]; After 1 week, 4° C.) | Thermal stability (amount by quantitative HPLC) ([4]; After 1 week, 40° C.) | Thermal stability (amount by quantitative HPLC) ([4]; After 1 week, r.t.) | Thermal stability (amount by quantitative HPLC) ([4]; After 2 weeks, 4° C.) | Thermal stability (amount by quantitative HPLC) ([4]; After 2 weeks, 40° C.) | Thermal stability (amount by quantitative HPLC) ([4]; After 2 weeks, r.t.) | Thermal stability (amount by quantitative HPLC) ([4]; After 4 weeks, 4° C.) | Thermal stability (amount by quantitative HPLC) ([4]; After 4 weeks, 40° C.) | Thermal stability (amount by quantitative HPLC) ([4]; After 4 weeks, r.t.) | Thermal stability (amount by quantitative HPLC) ([4]; Initial value, 4° C.) | Thermal stability (amount by quantitative HPLC) ([4]; Initial value, 40° C.) | Thermal stability (amount by quantitative HPLC) ([4]; Initial value, r.t.) | also measured
CC1=C(/C=C/C(C)=C/C=C/C(C)=C/CO)C(C)(C)CCC1 [Retinol] | 5.8 | 7.3 | 0.8 | about 33% | 0.9 | 1.3 | 100 | 56.08 | 74.27 | 98.23 | 43.26 | 65.23 | 95.52 | 34.51 | 52.23 | 100 | 100 | 100 | –
CC1=C(/C=C/C(C)=C/C=C/C(C)=C/COC(=O)/C=C(C)/C=C/C=C(C)/C=C/C2=C(C)CCCC2(C)C)C(C)(C)CCC1 [Compound of formula (1), Retinyl retinoate] | 4.1 | 6.7 | 0.7 | about 52% | 1.1 | 1.5 | 100 | 74.46 | 92.77 | 100 | 70.25 | 90.45 | 99.65 | 68.23 | 89.21 | 100 | 100 | 100 | effect on / inhibitory activity against c-Jun (AP-1), in words ([1]; HaCaT, Coll-CAT, c-Jun / RAR α cotransfection): lower inhibitory activity against c-Jun than retinoic acid, but higher one than retinol; Relative activity against RAR γ [2, 9]: lower activity than retinoic acid but higher one than retinol; also recorded: low activity; cell toxicity (FIG. 1) [5]: lower intracellular toxicity than retinol, retinoic acid, or derivatives thereof; Relative activity against RAR β [3, 9]: lower activity than retinoic acid but higher one than retinol; also recorded: low activity
